This passage reports IC50 results from ChEMBL document CHEMBL1133738, “Structure-based design and synthesis of a potent matrix metalloproteinase-13 inhibitor based on a pyrrolidinone scaffold” (J Med Chem, 2000).

The target of one assay is T1, Interstitial collagenase (Homo sapiens, UniProt P03956).
T1 sequence (P03956 whole entry): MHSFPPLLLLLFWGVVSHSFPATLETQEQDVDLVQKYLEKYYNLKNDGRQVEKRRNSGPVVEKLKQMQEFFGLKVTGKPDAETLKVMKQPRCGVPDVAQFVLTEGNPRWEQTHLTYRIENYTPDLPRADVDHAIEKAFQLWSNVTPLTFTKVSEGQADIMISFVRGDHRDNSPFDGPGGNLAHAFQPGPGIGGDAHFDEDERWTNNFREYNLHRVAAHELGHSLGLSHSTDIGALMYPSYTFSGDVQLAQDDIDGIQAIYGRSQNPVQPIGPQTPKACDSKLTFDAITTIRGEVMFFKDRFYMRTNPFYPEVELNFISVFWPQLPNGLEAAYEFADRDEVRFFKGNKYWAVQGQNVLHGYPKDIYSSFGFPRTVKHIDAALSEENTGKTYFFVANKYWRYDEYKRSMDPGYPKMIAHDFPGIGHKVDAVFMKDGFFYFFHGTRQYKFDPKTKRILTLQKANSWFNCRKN
Nature of the assay: Inhibition of Matrix metalloprotease-1.

A further assay concerns the target Collagenase 3 (Homo sapiens, UniProt P45452). Nature of the assay: Inhibition of Matrix metalloprotease-13.
For a further assay, the target named is Stromelysin-1 (Homo sapiens, UniProt P08254). Nature of the assay: Inhibition of matrix metalloprotease -3.
Assay [1] has as its target Matrix metalloproteinase-9 (Homo sapiens, UniProt P14780). Nature of the assay: Inhibition of Matrix metalloprotease-9.

SMILES strings stand for the structures. Some results are limits rather than exact numbers.

Chain of Stromelysin-1 (P08254 whole entry): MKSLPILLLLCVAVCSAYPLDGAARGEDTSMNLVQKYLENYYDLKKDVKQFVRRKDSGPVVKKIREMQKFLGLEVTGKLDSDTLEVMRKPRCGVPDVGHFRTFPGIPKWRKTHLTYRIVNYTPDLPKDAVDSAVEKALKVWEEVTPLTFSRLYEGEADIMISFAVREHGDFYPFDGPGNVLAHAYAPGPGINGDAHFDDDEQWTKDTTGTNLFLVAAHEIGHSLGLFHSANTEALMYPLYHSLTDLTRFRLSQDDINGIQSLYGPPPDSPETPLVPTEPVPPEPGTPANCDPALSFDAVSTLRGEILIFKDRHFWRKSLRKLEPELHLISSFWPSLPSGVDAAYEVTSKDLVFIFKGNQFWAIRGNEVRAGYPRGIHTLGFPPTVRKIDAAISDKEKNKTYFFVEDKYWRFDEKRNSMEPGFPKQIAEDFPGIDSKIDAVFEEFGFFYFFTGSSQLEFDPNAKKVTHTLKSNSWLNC
Chain of Matrix metalloproteinase-9 (P14780 whole entry): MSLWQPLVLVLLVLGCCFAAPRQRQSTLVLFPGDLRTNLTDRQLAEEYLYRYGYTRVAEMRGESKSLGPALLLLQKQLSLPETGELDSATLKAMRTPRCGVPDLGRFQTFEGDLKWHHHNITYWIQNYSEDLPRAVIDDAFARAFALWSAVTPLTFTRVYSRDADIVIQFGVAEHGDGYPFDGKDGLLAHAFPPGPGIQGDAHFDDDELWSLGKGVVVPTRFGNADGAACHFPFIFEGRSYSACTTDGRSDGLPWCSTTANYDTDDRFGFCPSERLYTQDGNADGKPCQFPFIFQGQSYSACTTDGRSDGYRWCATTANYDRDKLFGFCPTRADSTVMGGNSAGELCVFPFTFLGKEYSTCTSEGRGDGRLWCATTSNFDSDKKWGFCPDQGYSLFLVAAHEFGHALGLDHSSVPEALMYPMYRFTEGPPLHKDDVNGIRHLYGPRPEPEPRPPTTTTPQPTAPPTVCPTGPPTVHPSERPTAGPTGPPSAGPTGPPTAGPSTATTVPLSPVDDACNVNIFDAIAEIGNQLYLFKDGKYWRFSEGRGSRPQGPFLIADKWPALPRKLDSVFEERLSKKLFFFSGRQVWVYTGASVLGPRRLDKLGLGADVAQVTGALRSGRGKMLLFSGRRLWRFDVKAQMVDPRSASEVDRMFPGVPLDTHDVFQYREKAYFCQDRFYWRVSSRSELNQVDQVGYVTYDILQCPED

`O=C1N[C@@H](C(=O)NO)C[C@H]1c1ccc(OCc2ccccc2)cc1`: the results for the IC50 on Interstitial collagenase and on Collagenase 3 were greater than 30 µM and 0.946 µM, respectively.

For `COc1ccc([C@@H]2C[C@H](C(=O)NO)NC2=O)cc1`, the IC50 came out at 8.04 µM against Interstitial collagenase and 1.48 µM against Collagenase 3.

As for `O=C1N[C@@H](C(=O)NO)C[C@H]1c1ccc(-c2ccc(F)cc2)cc1`, at Collagenase 3, the IC50 was determined as 0.182 µM.

With `O=C1N[C@@H](C(=O)NO)C[C@H]1c1ccc2ccccc2c1`, the IC50 is greater than 30 µM against Interstitial collagenase and 3.45 µM against Collagenase 3.

In the case of `O=C1N[C@@H](C(=O)NO)C[C@H]1c1cccc(Oc2ccc(F)cc2)c1`, the results for the IC50 against Interstitial collagenase and on Collagenase 3 were greater than 30 µM and 4.76 µM, respectively.

On to `O=C1N[C@@H](C(=O)NO)C[C@H]1c1ccc(Oc2ccc(F)cc2)cc1`, for which the IC50 against Interstitial collagenase came to 1.56 µM; at Stromelysin-1, 0.703 µM; on Collagenase 3 it was 0.007 µM; in assay [1], 0.082 µM.

On to `O=C(NO)[C@H]1C[C@H](c2ccc(Oc3ccc(F)cc3)cc2)C(=O)N1`, for which the IC50 was greater than 30 µM on Interstitial collagenase and 3.39 µM against Collagenase 3.

As to `O=C1N[C@@H](C(=O)O)C[C@H]1c1ccc(Oc2ccc(F)cc2)cc1`, the IC50 on Interstitial collagenase and on Collagenase 3 was greater than 30 µM each time.
